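Exposure lasted 48 hours, with cells grown in 96-well plates and compounds tested at five concentrations. GI50: concentration for 50% inhibition of growth.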 Calls of active or inactive are those of the source. Rule as the data show it: active = GI50 up to about 1.1 µM and inactive = higher.
Legend:
Experiment in all cases: growth of human tumour cells (NCI), 48 h
[1] = system: CAKI-1
[2] = system: LOX IMVI
[3] = system: HCT-15
[4] = system: DU-145
[5] = system: ACHN
[6] = system: SW-620
[7] = system: MDA-MB-231
[8] = system: RXF 393
[9] = system: OVCAR-8
[10] = system: SF-268
[11] = system: A549
[12] = system: HCC 2998
[13] = system: SF-295
[14] = system: MOLT-4
[15] = system: M14
[16] = system: NCI-H522
[17] = system: NCI-H226
[18] = system: K562
[19] = system: MDA-MB-435
[20] = system: U-251
[21] = system: SNB-19
[22] = system: PC-3
[23] = system: RPMI-8226
[24] = system: EKVX
[25] = system: BT-549
[26] = system: MCF7
[27] = system: CCRF-CEM
[28] = system: Hs-578T
[29] = system: Malme-3M
[30] = system: NCI/ADR-RES
[31] = system: NCI-H23
[32] = system: OVCAR-4
[33] = system: SK-MEL-5
[34] = system: UACC-62
[35] = system: A498
[36] = system: NCI-H460
[37] = system: HCT-116
[38] = system: 786-0
[39] = system: HL-60
[40] = system: SF-539
[41] = system: HOP-62
[42] = system: OVCAR-3
[43] = system: KM12
[44] = system: UO-31
[45] = system: SK-MEL-2
[46] = system: HT-29
[47] = system: MDA-N
[48] = system: TK-10
[49] = system: IGROV-1
[50] = system: SN12C
[51] = system: COLO 205
[52] = system: SR
[53] = system: HOP-92
[54] = system: OVCAR-5
[55] = system: SK-OV-3
[56] = system: SK-MEL-28
[57] = system: UACC-257
[58] = system: SNB-75

## COc1cc(C2C3=C(COC3=O)Oc3cc4c(cc32)OCO4)cc(OC)c1OC(C)=O (stereo not drawn)
[1]
  GI50: < 0.01 µM (active)
[2]
  GI50: 0.0331 µM (active)
[3]
  GI50: 0.0226 µM
[4]
  GI50: 0.0381 µM (active)
[5]
  GI50: < 0.01 µM (active)
[6]
  GI50: 0.0202 µM (active)
[7]
  GI50: 0.038 µM (active)
[8]
  GI50: < 0.01 µM (active)
[9]
  GI50: 0.0316 µM (active)
[10]
  GI50: 0.0608 µM (active)
[11]
  GI50: 0.0462 µM (active)
[12]
  GI50: 0.0547 µM (active)
[13]
  GI50: 0.0316 µM (active)
[14]
  GI50: 0.0612 µM (active)
[15]
  GI50: 0.0216 µM (active)
[16]
  GI50: < 0.01 µM (active)
[17]
  GI50: < 0.0376 µM (active)
[18]
  GI50: 0.0122 µM (active)
[19]
  GI50: < 0.01 µM (active)
[20]
  GI50: 0.0388 µM (active)
[21]
  GI50: 0.024 µM (active)
[22]
  GI50: < 0.01 µM (active)
[23]
  GI50: 0.0318 µM (active)
[24]
  GI50: 0.0435 µM (active)
[25]
  GI50: 0.0255 µM (active)
[26]
  GI50: < 0.012 µM (active)
[27]
  GI50: 0.0258 µM (active)
[28]
  GI50: 0.0101 µM (active)
[29]
  GI50: < 0.0215 µM (active)
[30]
  GI50: < 0.01 µM (active)
[31]
  GI50: 0.0233 µM (active)
[32]
  GI50: 29.6 µM (inactive)
[33]
  GI50: < 0.01 µM (active)
[34]
  GI50: < 0.01 µM (active)
[35]
  GI50: 0.0116 µM (active)
[36]
  GI50: 0.0212 µM (active)
[37]
  GI50: 0.0207 µM (active)
[38]
  GI50: 0.0186 µM (active)
[39]
  GI50: < 0.0104 µM (active)
[40]
  GI50: < 0.01 µM (active)
[41]
  GI50: 0.0157 µM (active)
[42]
  GI50: 0.0197 µM (active)
[43]
  GI50: 0.0135 µM (active)
[44]
  GI50: < 0.0124 µM (active)
[45]
  GI50: 37 µM (inactive)
[46]
  GI50: 0.0262 µM (active)
[47]
  GI50: < 0.01 µM (active)
[48]
  GI50: 0.966 µM (active)
[49]
  GI50: 0.0239 µM (active)
[50]
  GI50: 0.619 µM (active)
[51]
  GI50: 0.027 µM (active)
[52]
  GI50: 0.0406 µM (active)

## O=C(C(=C(I)I)c1ccccc1)c1ccccc1
[1]
  GI50: 38.4 µM (inactive)
[3]
  GI50: 29.9 µM
[5]
  GI50: 29.7 µM (inactive)
[6]
  GI50: 28.8 µM (inactive)
[9]
  GI50: 37.2 µM (inactive)
[10]
  GI50: 22.6 µM (inactive)
[11]
  GI50: 36.9 µM (inactive)
[12]
  GI50: > 10 µM (inactive)
[13]
  GI50: 21.7 µM (inactive)
[14]
  GI50: 19.8 µM (inactive)
[15]
  GI50: 25 µM (inactive)
[18]
  GI50: 4.7 µM (inactive)
[53]
  GI50: 33 µM (inactive)
[19]
  GI50: 31.1 µM (inactive)
[21]
  GI50: 29.9 µM (inactive)
[22]
  GI50: 28.4 µM (inactive)
[23]
  GI50: 19.5 µM (inactive)
[24]
  GI50: 28.8 µM (inactive)
[25]
  GI50: 55.7 µM (inactive)
[26]
  GI50: 49.8 µM (inactive)
[54]
  GI50: 86.3 µM (inactive)
[27]
  GI50: 1.08 µM (active)
[28]
  GI50: 16.1 µM (inactive)
[29]
  GI50: 19.7 µM (inactive)
[55]
  GI50: 59.6 µM (inactive)
[30]
  GI50: 28.6 µM (inactive)
[31]
  GI50: 21 µM (inactive)
[32]
  GI50: 39.9 µM (inactive)
[33]
  GI50: 16.8 µM (inactive)
[34]
  GI50: 18.2 µM (inactive)
[35]
  GI50: 13.1 µM (inactive)
[36]
  GI50: 27.5 µM (inactive)
[37]
  GI50: 17.1 µM (inactive)
[38]
  GI50: > 10 µM (inactive)
[39]
  GI50: 13.2 µM (inactive)
[40]
  GI50: 24.8 µM (inactive)
[41]
  GI50: 19.2 µM (inactive)
[56]
  GI50: 30.7 µM (inactive)
[42]
  GI50: 20.9 µM (inactive)
[44]
  GI50: 20.8 µM (inactive)
[45]
  GI50: 16.1 µM (inactive)
[46]
  GI50: 33.6 µM (inactive)
[47]
  GI50: 19.1 µM (inactive)
[48]
  GI50: 28.4 µM (inactive)
[49]
  GI50: 8.63 µM (inactive)
[50]
  GI50: 24 µM (inactive)
[51]
  GI50: 27.5 µM (inactive)
[52]
  GI50: 14.2 µM (inactive)
[57]
  GI50: 37.4 µM (inactive)

## CCCNC1=Nc2ccccc2NC(C)C1 (stereo not drawn)
[1]
  GI50: > 100 µM (inactive)
[3]
  GI50: > 100 µM
[4]
  GI50: > 100 µM (inactive)
[5]
  GI50: > 100 µM (inactive)
[6]
  GI50: > 100 µM (inactive)
[7]
  GI50: > 100 µM (inactive)
[8]
  GI50: > 100 µM (inactive)
[9]
  GI50: > 100 µM (inactive)
[10]
  GI50: > 100 µM (inactive)
[11]
  GI50: > 100 µM (inactive)
[13]
  GI50: > 100 µM (inactive)
[58]
  GI50: 22.6 µM (inactive)
[14]
  GI50: > 100 µM (inactive)
[15]
  GI50: > 100 µM (inactive)
[16]
  GI50: > 100 µM (inactive)
[17]
  GI50: > 100 µM (inactive)
[18]
  GI50: > 100 µM (inactive)
[19]
  GI50: > 100 µM (inactive)
[20]
  GI50: > 100 µM (inactive)
[21]
  GI50: > 100 µM (inactive)
[22]
  GI50: > 100 µM (inactive)
[23]
  GI50: > 100 µM (inactive)
[24]
  GI50: > 100 µM (inactive)
[25]
  GI50: > 100 µM (inactive)
[54]
  GI50: > 100 µM (inactive)
[27]
  GI50: > 100 µM (inactive)
[28]
  GI50: > 100 µM (inactive)
[29]
  GI50: 79.6 µM (inactive)
[55]
  GI50: > 100 µM (inactive)
[30]
  GI50: > 100 µM (inactive)
[31]
  GI50: > 100 µM (inactive)
[32]
  GI50: > 100 µM (inactive)
[33]
  GI50: > 100 µM (inactive)
[34]
  GI50: > 100 µM (inactive)
[35]
  GI50: > 100 µM (inactive)
[36]
  GI50: > 100 µM (inactive)
[37]
  GI50: > 100 µM (inactive)
[38]
  GI50: > 100 µM (inactive)
[39]
  GI50: > 100 µM (inactive)
[41]
  GI50: > 100 µM (inactive)
[56]
  GI50: > 100 µM (inactive)
[42]
  GI50: > 100 µM (inactive)
[43]
  GI50: > 100 µM (inactive)
[44]
  GI50: > 100 µM (inactive)
[45]
  GI50: > 100 µM (inactive)
[46]
  GI50: > 100 µM (inactive)
[47]
  GI50: > 100 µM (inactive)
[48]
  GI50: > 100 µM (inactive)
[49]
  GI50: > 100 µM (inactive)
[50]
  GI50: > 100 µM (inactive)
[51]
  GI50: > 100 µM (inactive)
[57]
  GI50: > 100 µM (inactive)

From ChEMBL document CHEMBL1201862, “PubChem BioAssay data set” (2004)
